Measurements as given in ChEMBL document CHEMBL6114956, “Design, synthesis, and evaluation of the pharmacological activity of novel NMDA receptor antagonists based on the germacrone scaffold” (2025).
Activity calls are given as the source filed them. The calls are words filed in the database; no cut-off is given here.

Experiments:
[1] = system: PC-12; assay: Neuroprotective activity against NMDA-induced cell injury in rat PC12 cells at 0.05 uM incubated for 12 hrs by MTT assay relative to control; format: functional
[2] = system: PC-12; assay: Neuroprotective activity against NMDA-induced cell injury in rat PC12 cells at 0.5 uM incubated for 12 hrs by MTT assay relative to control; format: functional
[3] = system: PC-12; assay: Neuroprotective activity against NMDA-induced cell injury in rat PC12 cells at 5 uM incubated for 12 hrs by MTT assay relative to control; format: functional
[4] = target: Glutamate NMDA receptor (Rattus norvegicus) (UniProt P35439+Q00959+Q00960+Q00961+Q62645+Q8VHN2+Q9R1M7); assay: Antagonist activity at NMDAR in rat PC12 cells assessed as inhibition of NMDA-induced Ca2+ influx at 0.05 uM preincubated for 6 hrs followed by NMDA addition measured for 1 to 3 mins by Fluo-4 AM staining based analysis; format: cell-based; details: filed as antagonist, time 361-363 min

Compound | Activity [1] [%] | Activity [2] [%] | Activity [3] [%] | Activity [4]
CC(C)=C1C/C=C(/C)CC/C=C(\C)CC1OC(=O)[C@@H]1CCC2=Nc3ccc(Cl)cc3CN21 (stereo not given in full) | 28.73 | 28.87 | 25.35 | 
CC(C)=C1C/C=C(/C)CC/C=C(\C)CC1OC(=O)[C@@H](C)NC(=O)c1ccc(Cl)cc1 (stereo not given in full) | 15.03 | 16.58 | 5.32 | 
CC(C)=C1C/C=C(/C)CC/C=C(\C)CC1OC(=O)[C@@H](C)NC(=O)c1ccc(F)cc1 (stereo not given in full) | 13.93 | 9.33 | 12.32 | 
CC(C)=C1C/C=C(/C)CC/C=C(\C)CC1OC(=O)[C@H](C)NC(=O)c1ccc(F)cc1 (stereo not given in full) | 15.35 | 12.7 | 16.47 | 
CC(C)=C1C/C=C(/C)CC/C=C(\C)CC1OC(=O)[C@H](C)NC(=O)c1ccc(O)cc1 (stereo not given in full) | 12.86 | 10.31 | -2.01 | 
CC(C)=C1C/C=C(/C)CC/C=C(\C)CC1=O | 14.66 | 2.94 | -4.79 | Active
CC(C)=C1C/C=C(/C)CC/C=C(\C)CC1OC(=O)[C@@H](C)NC(=O)c1ccc(O)cc1 (stereo not given in full) | 15.74 | 15.08 | 11.03 | 
CC(C)=C1C/C=C(/C)CC/C=C(\C)CC1OC(=O)[C@H](C)NC(=O)c1ccc(Cl)cc1 (stereo not given in full) | 14.06 | 15.27 | 11.25 | 
CC(C)=C1C/C=C(/C)CC/C=C(\C)CC1OC(=O)[C@@H]1CCC2=Nc3ccccc3CN21 (stereo not given in full) | 29.63 | 26.17 | 24.42 | Active; Compound Activity Was Superior To Ifenprodil
CC(C)=C1C/C=C(/C)CC/C=C(\C)CC1OC(=O)[C@@H]1CCC2=Nc3ccc(Br)cc3CN21 (stereo not given in full) | 23.62 | 28.02 | 29.37 | 
CC(C(O)c1ccc(O)cc1)N1CCC(Cc2ccccc2)CC1 (stereo not given) [IFENPRODIL] | 18.31 | 22.57 | 31.16 | 
